Patent publication US11285093B2, “Cosmetic uses of swertiamarin” (LUCAS MEYER COSMETICS, priority 2014, dated 2022)

Assays:
fibronectin = assay: Fibronectin synthesis by normal human fibroblasts of the dermis (NHDF), ELISA; assay type: cell-based; conditions: 24 h or 48 h
Procedure: The applied test was based on the synthesis of fibronectin induced by TGF-β by cells of normal human fibroblasts of the dermis (NHDF) in a monolayer culture. The culture was produced by using as a culture medium DMEM (Eurobio, CMODME70-08) containing 10% of fetal calf serum (Eurobio, CVFSV00-0U), 1% of antibiotics (penicillin/streptomycin, Eurobio, CABPES01-OU) and 1% of L-glutamine (Eurobio, CSTGLUOO-OU), at a temperature of 37° C. under 5% of CO2 and 95% of humidity.
The cells were then sown, in the presence of complete DMEM, in microplates in an amount of 2.5*10^4 cells per well and then incubated at a temperature of 37° C. under 5% of CO2 and 95% of humidity. The culture medium was replaced after 24 hours in order to bring the cells to a quiescent state.
Next, the cells were incubated in the presence of TGF-β or swertiamarin for 24 h or 48 h. The cell supernatants were then collected in order to quantify fibronectin by an ELISA test (BMS028, Ebiosciences). The cell viability level was also determined by the standard MTT test. As a control, cells were incubated under the same conditions but in the absence of TGF-β and of swertiamarin (control).
The results are expressed as a percentage of the amount of fibronectin produced per mL relative to the amount of fibronectin produced by the group of control experiments.

human keratinocytes = assay: Scratch assay on monolayer culture of human keratinocytes; assay type: cell-based; conditions: 72 hours
Procedure: Normal keratinocytes surgically sampled in a person were cultivated so as to obtain a monolayer culture of keratinocytes.
When confluence was attained, a lesion (“scratch”) was carried out in each cell culture so as to locally remove an equivalent amount of keratinocytes.
Each culture of keratinocytes was then incubated at 37° C. in a humid atmosphere and in the presence of 5% of CO2, in the presence of an adipocyte culture medium conditioned with swertiamarin (0.0025%; 0.005%; 0.0075% by weight), for 72 hours. The swertiamarin was introduced into the adipocyte culture medium by dilution of a stock solution at 10% in DMSO. The final amount of DMSO in the culture media is 0.15%. […]
The surface corresponding to the “lesion” (i.e. to the area where the keratinocytes were removed) was measured before (t=0) and after incubation for each cell culture from photographs obtained by optical microscopy by using the software package Image J.
The results were expressed as a percentage of re-colonized surface relative to the surface observed at t=0.
The statistical significance of the differences obtained between the groups “DMSO Control” and the groups “TGF-β Controls” was evaluated by using the t-test (***: p<0.001). […]

[1] = tested on: keratinocyte growth factor (KGF); assay: KGF quantification by ELISA in culture medium of human adipocytes; assay type: cell-based; conditions: 0.0075% by weight of swertiamarin, 15 hours, normal human adipocytes, vs DMSO control
Procedure: A stock solution at 10% by weight of swertiamarin in DMSO was prepared. This solution was then diluted in the culture medium so as to obtain a final concentration of 0.0075% by weight of swertiamarin.
A culture of normal human adipocytes, obtained from adipocytes sampled by abdominal plastic surgery in a person, was incubated for 15 hours with the culture medium containing swertiamarin. As a negative control, a culture of adipocytes incubated for 15 hours with a culture medium without any swertiamarin but containing the same amount of DMSO was used.
At the end of the incubation, the amount of KGF was quantified in each culture medium by an ELISA test. The statistical significance of the differences between the “control” groups and the “test groups” was evaluated by variance analysis (One way Anova) followed by the Holm Sida test (p*<0.05).

Procedure for human skin explants: 21 skin explants with a diameter of 10 mm were prepared from these samples, among which 12 are skin explants without any adipose tissue (epidermis+dermis explant) and 9 are full skin explants (epidermis+dermis+hypodermis). The explants are maintained alive in a BEM medium at 37° C. in the presence of a humid atmosphere with 5% of CO2. The skin explants were distributed into three groups: • Group 1: a cream containing swertiamarin (SWT) in an amount of 0.025% was applied at days 0, 1, 2, 3, 6 and 7 of the incubation, to the surface of the skin explants by means of a spatula (1 μl in the morning and 1 μl in the evening), • Group 2: a placebo cream (free of swertiamarin) was applied on days 0, 1, 2, 3, 6 and 7 of the incubation, to the surface of the skin explants by means of a spatula (1 μl in the mornings and 1 μl in the evenings), • Group 3: this control group was maintained alive without any treatment (without application of a placebo cream or of cream based on swertiamarin).
On day 9, the skin explants are recovered, chemically bound in a formol solution for 24 hours, dehydrated, impregnated with paraffin and then infiltrated with resin according to the SOP H-53 protocol. Fine cuts are then made in each explant and observed by optical microscopy after staining.

Substance | production of fibronectin vs control (fibronectin; TGF-β) | cell re-colonization (re-colonized surface) vs DMSO Control (human keratinocytes; TGF-β 10 ng/ml, p<0.001) | increase of the amount of fibronectin vs control (fibronectin; 0.005% swertiamarin) | increase of the surface area re-colonized by the keratinocytes vs DMSO Control (human keratinocytes; adipocyte culture medium conditioned with 0.0025% swertiamarin) | morphological alteration of treated skin explants (human skin explants) | increase in the average amount of KGF in the culture medium [1]
TGF-β [reference compound] | +64% | +124.1% | – | – | – | –
Swertiamarin | – | – | more than 171% | +64.6% | do not exhibit any notable morphological alteration | about 16.4%
